Experiment [1] deals with hepatic lipase (HL) (Homo sapiens (Human), UniProt P11150). Nature of the experiment: HL assay: hepatic lipase activity with fluorescent substrate A10070 in DMPG vesicles. In kind it is biochemical. The essentials: (§1)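 EL from conditioned medium of HT-1080 cells engineered to overexpress endogenous EL; HL partially purified from conditioned medium of HL-overexpressing COS cells. Enzyme preincubated with compound 30 min at 37° C in 50 mM HEPES pH 8.0, 50 mM NaCl, 1 mM CaCl2; DMPG vesicles carrying FRET substrate (0.11 mole fraction) then added.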

Experiment [2] has as its target Endothelial lipase (EL) (Homo sapiens (Human), UniProt Q9Y5X9). Put plainly: EL assay: endothelial lipase activity with fluorescent substrate A10070 in DMPG vesicles. In kind it is biochemical. The essentials:
as §1

In patent US8987314B2, “Amide, urea or sulfone amide linked benzothiazole inhibitors of endothelial lipase” (Bristol-Myers Squibb Company, priority 2012, dated 2015) one finds IC50 data, which are given here for 18 compounds.

Each structure is given as a SMILES string.

What is called IC50 is the concentration that inhibits the measured activity by half. The low end stands for higher potency, the high end for lower potency.

Endothelial lipase (EL), sequence (Q9Y5X9 21-500): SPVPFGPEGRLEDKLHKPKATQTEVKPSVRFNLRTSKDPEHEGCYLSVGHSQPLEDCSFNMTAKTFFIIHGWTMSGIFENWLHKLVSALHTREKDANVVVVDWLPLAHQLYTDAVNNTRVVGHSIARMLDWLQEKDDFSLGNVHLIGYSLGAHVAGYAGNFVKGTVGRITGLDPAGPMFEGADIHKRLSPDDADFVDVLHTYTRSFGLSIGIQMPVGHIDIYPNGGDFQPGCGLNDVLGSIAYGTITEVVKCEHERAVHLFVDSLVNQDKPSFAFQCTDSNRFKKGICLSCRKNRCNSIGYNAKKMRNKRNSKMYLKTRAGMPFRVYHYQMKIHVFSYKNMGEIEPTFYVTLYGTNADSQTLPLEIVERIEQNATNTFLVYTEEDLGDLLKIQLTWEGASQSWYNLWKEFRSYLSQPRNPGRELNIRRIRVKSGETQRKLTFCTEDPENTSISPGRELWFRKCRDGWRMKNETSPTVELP
hepatic lipase (HL), sequence (P11150 23-499, species assumed): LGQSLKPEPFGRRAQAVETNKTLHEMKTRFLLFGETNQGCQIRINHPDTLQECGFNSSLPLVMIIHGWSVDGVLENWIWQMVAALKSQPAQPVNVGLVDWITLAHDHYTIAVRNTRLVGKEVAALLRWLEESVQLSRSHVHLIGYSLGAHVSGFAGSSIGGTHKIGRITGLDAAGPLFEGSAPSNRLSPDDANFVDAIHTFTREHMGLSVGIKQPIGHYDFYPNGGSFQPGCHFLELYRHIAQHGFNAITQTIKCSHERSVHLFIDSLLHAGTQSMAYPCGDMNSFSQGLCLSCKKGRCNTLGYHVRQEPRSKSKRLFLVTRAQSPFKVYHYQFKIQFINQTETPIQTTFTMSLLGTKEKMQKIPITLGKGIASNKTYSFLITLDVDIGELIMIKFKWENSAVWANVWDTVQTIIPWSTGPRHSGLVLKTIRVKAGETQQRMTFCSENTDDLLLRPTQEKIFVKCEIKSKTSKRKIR

On to `CC(C)(C)OC(=O)c1ccc(-c2ccc3nc(C(C(=O)NCCS(N)(=O)=O)S(=O)(=O)Cc4ccccc4)sc3c2)cc1` (stereo not drawn) [Example B276, tert-butyl 4-(2-{phenylmethanesulfonyl[(2-sulfamoylethyl)car-bamoyl]methyl)-1,3-benzothiazol-6-yl)benzoate], for which the results for the half-inhibitory concentration (IC50) in experiment [1] and in experiment [2] were 0.8 nM and 1.1 nM, respectively.

`NS(=O)(=O)c1cccc(CNC(=O)C(c2nc3ccc(-c4ccc(C(=O)N5CCCC5)cc4)cc3s2)S(=O)(=O)Cc2ccccc2)c1` (stereo not drawn) [Example B277, 2-phenylmethanesulfonyl-2-{6-[4-(pyrrolidine-1-carbonyl)phenyl]-1,3-benzothiazol-2-yl}-N-[(3-sulfamoylphenyl)methyl]a-cetamide]: the values for the IC50 in experiment [1] and in experiment [2] were 84.9 nM and 191 nM, respectively.

Take `NS(=O)(=O)c1cccc(CNC(=O)C(c2nc3ccc(-c4ccncc4Cl)cc3s2)S(=O)(=O)Cc2ccccc2)c1` (stereo not drawn) [Example B278, 2-[6-(3-chloropyridin-4-yl)-1,3-benzothiazol-2-yl]-2-phenylmethanesulfonyl-N-[(3-sulfamoylphen-yl)methyl]acetamide]: the 50% inhibitory concentration (IC50) amounted to 355 nM in experiment [1] and 158 nM in experiment [2].

In the case of `Cc1nnc(CNC(=O)C(c2nc3ccc(-c4ccc(C(=O)OC(C)(C)C)cc4)cc3s2)S(C)(=O)=O)s1` (stereo not drawn) [Example B279, tert-butyl 4-{2-[methanesulfonyl({[(5-methyl-1,3,4-thiadiazol-2-yl)methyl]carbamoyl})meth-yl]-1,3-benzothiazol-6-yl}benzoate], the 50% inhibitory concentration (IC50) in experiment [1] was determined as 2.8 nM; in experiment [2] it was 15.6 nM.

Regarding `CC(C)S(=O)(=O)C(C(=O)NCCS(N)(=O)=O)c1nc2c(F)cc(-c3cccc(C(=O)OC(C)(C)C)c3)cc2s1` (stereo not drawn) [Example B280, tert-butyl 3-{4-fluoro-2-[(propane-2-sulfonyl)[(2-sul-famoylethyl)carbamoyl]meth-yl]-1,3-benzothiazol-6-yl}benzoate], the IC50 in experiment [1] came out at 2.9 nM; in experiment [2], 4.8 nM.

`COCCS(=O)(=O)C(C(=O)NCCS(N)(=O)=O)c1nc2ccc(-c3ccc(F)nc3)cc2s1` (stereo not drawn) [Example B281, 2-[6-(6-fluoropyridin-3-yl)-1,3-benzothiazol-2-yl]-2-(2-methoxyethane-sulfonyl)-N-(2-sulfamoylethyl)acetamide]: the figures for the IC50 in experiment [1] and in experiment [2] were 110 nM and 17.9 nM, respectively.

For the compound `COCCNC(=O)c1ccc(-c2ccc3nc(C(C(=O)NCCS(N)(=O)=O)S(=O)(=O)Cc4ccc(OC(F)(F)F)cc4)sc3c2)cc1` (stereo not drawn) [Example B282, N-(2-methoxyethyl)-4-(2-{[(2-sulfamoylethyl)car-bamoyl][4-(trifluoromethoxy)phen-yl]methanesulfonylmethyl}-1,3-benzothiazol-6-yl)ben-zamide], the values for the IC50 in experiment [1] and in experiment [2] were 306 nM and 2.6 nM, respectively.

As to `NS(=O)(=O)CCNC(=O)C(c1nc2ccc(-c3ccc(C(=O)N4CCOCC4)cc3)cc2s1)S(=O)(=O)CC1CC1` (stereo not drawn) [Example B283, 2-cyclopropylmethane-sulfonyl-2-{6-[4-(morpholine-4-carbonyl)phenyl]-1,3-benzothiazol-2-yl}-N-(2-sulfamoylethyl)acetamide], the 50% inhibitory concentration (IC50) in experiment [1] is 365 nM; in experiment [2], 53.8 nM.

Take `NS(=O)(=O)CCNC(=O)C(c1nc2ccc(-c3ccccc3)cc2s1)S(=O)(=O)CCC(F)(F)F` (stereo not drawn) [Example B284, 2-(6-phenyl-1,3-benzothiazol-2-yl)-N-(2-sulfamoylethyl)-2-(3,3,3-trifluoropropanesulfonyl)a-cetamide]: the IC50 in experiment [1] stood at 2.6 nM; in experiment [2], 6.8 nM.

For the compound `COCc1ccc(-c2ccc3nc(C(C(=O)NCCS(N)(=O)=O)S(=O)(=O)Cc4ccc(OC(F)(F)F)cc4)sc3c2)cc1` (stereo not drawn) [Example B285, 2-{6-[4-(methoxymethyl)phenyl]-1,3-benzothiazol-2-yl}-N-(2-sulfamoylethyl)-2-{[4-(trifluoromethoxy)phen-yl]methanesulfonyl}a-cetamide], the IC50 in experiment [1] was found to be 126 nM; in experiment [2], 5.4 nM.

As for `COCc1ccc(-c2ccc3nc(C(C(=O)NCCS(N)(=O)=O)S(=O)(=O)CC4CC4)sc3c2)cc1` (stereo not drawn) [Example B286, 2-cyclopropylmethane-sulfonyl-2-{6-[4-(methoxymethyl)phenyl]-1,3-benzothiazol-2-yl}-N-(2-sulfamoylethyl)a-cetamide], the IC50 in experiment [1] was 55.5 nM; in experiment [2] it was 3.9 nM.

Take `CC(=O)Nc1ccc(-c2ccc3nc(C(C(=O)NCCS(N)(=O)=O)S(=O)(=O)Cc4ccc(C(F)(F)F)cc4)sc3c2)cc1` (stereo not drawn) [Example B287, 2-[6-(4-acetamidophenyl)-1,3-benzothiazol-2-yl]-N-(2-sulfamoylethyl)-2-{[4-(trifluoromethyl)phen-yl]methanesulfonyl}a-cetamide]: the figures for the IC50 in experiment [1] and in experiment [2] were 90 nM and 7 nM, respectively.

With `COCCN(C)C(=O)c1ccc(-c2ccc3nc(C(C(=O)NCCS(N)(=O)=O)S(=O)(=O)Cc4ccc(C(F)(F)F)cc4)sc3c2)cc1` (stereo not drawn) [Example B288, N-(2-methoxyethyl)-N-methyl-4-(2-{[(2-sulfamoylethyl)carbamoyl][4-(trifluoromethyl)phen-yl]methanesulfonylmethyl}-1,3-benzothiazol-6-yl)ben-zamide], the concentration for half-maximal inhibition (IC50) worked out at 124 nM in experiment [1] and 0.8 nM in experiment [2].

On to `COCCN(C)C(=O)c1ccc(-c2ccc3nc(C(C(=O)NCCS(N)(=O)=O)S(=O)(=O)Cc4ccc(OC(F)(F)F)cc4)sc3c2)cc1` (stereo not drawn) [Example B289, N-(2-methoxyethyl)-N-methyl-4-(2-{[(2-sulfamoyl-ethyl)carbamoyl][4-(trifluoromethoxy)phen-yl]methanesulfonyl-methyl}-1,3-benzothiazol-6-yl)benzamide], for which the concentration for half-maximal inhibition (IC50) in experiment [1] worked out at 21.7 nM; in experiment [2] it was 3.1 nM.

As for `COCCN(C)C(=O)c1ccc(-c2ccc3nc(C(C(=O)NCCS(N)(=O)=O)S(=O)(=O)CCC(F)(F)F)sc3c2)cc1` (stereo not drawn) [Example B290, N-(2-methoxyethyl)-N-methyl-4-(2-{[(2-sulfa-moylethyl)carbamoyl](3,3,3-trifluoropropane-sulfonyl)methyl}-1,3-benzothiazol-6-yl)ben-zamide], the IC50 in experiment [1] came to 114 nM; in experiment [2], 12.1 nM.

Take `COCCN(C)C(=O)c1ccc(-c2ccc3nc(C(C(=O)NCCS(N)(=O)=O)S(=O)(=O)CC4CC4)sc3c2)cc1` (stereo not drawn) [Example B291, 4-(2-{cyclopropylmethane-sulfonyl[(2-sulfamoyl-ethyl)carbamoyl]methyl}-1,3-benzothiazol-6-yl)-N-(2-methoxyethyl)-N-methylbenzamide]: the concentration for half-maximal inhibition (IC50) in experiment [1] was 35.2 nM; in experiment [2], 0.7 nM.

As to `COCCNC(=O)c1ccc(-c2ccc3nc(C(C(=O)NCCS(N)(=O)=O)S(=O)(=O)Cc4ccc(Cl)c(Cl)c4)sc3c2)cc1` (stereo not drawn) [Example B292, 4-{2-[(3,4-dichlorophen-yl)methanesulfonyl[(2-sulfa-moylethyl)carbamoyl]meth-yl]-1,3-benzothiazol-6-yl}-N-(2-methoxyethyl)ben-zamide], the results for the IC50 in experiment [1] and in experiment [2] were 112 nM and 20.2 nM, respectively.

For the compound `NS(=O)(=O)CCNC(=O)C(c1nc2ccc(-c3ccc(C(=O)N4CCOCC4)cc3)cc2s1)S(=O)(=O)Cc1ccc(C(F)(F)F)cc1` (stereo not drawn) [Example B293, 2-{6-[4-(morpholine-4-carbonyl)phenyl]-1,3-benzothiazol-2-yl}-N-(2-sulfamoylethyl)-2-{[4-(trifluoromethyl)phen-yl]methanesulfonyl}a-cetamide], the concentration for half-maximal inhibition (IC50) in experiment [1] turned out to be 328 nM; in experiment [2], 146 nM.
